In patent publication US6369069B1 (Aventis Pharma Deutschland GmbH, priority 1998, dated 2002):

Legend:
[1] = tested on: Na^+-dependent Cl^−/HCO3^− exchanger (NCBE); experiment: Inhibition of the Na+-dependent Cl−/HCO3− exchanger (NCBE) in human endothelial cells (pHi recovery, BCECF fluorescence, FLIPR); format: cell-based; conditions: for Residual activity % of the NCBE at 10 μM: compound at 10 μM, sub-table with R7 substituent; for Residual activity of the NCBE at 10 μM: 10 μM compound, human endothelial cells (ECV-304), related to 100% and 0% pHi recovery controls
Outline: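 Fluorescence rise (FLIPR, 2 min, 35 °C) tracked pHi recovery in acid-loaded, BCECF-loaded ECV-304 cells after adding Na+- and HCO3−-containing buffer with 50 μM HOE 642 and graded compound doses. Inhibition was calculated against full-recovery and bicarbonate-free no-recovery controls.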

| SMILES | Residual activity % of the NCBE at 10 μM [1] | Residual activity of the NCBE at 10 μM [1] | melting point |
| --- | --- | --- | --- |
| Cc1ccc(-c2ccc(CN(Cc3ccccc3Cl)C(=O)CC3CCCCC3)cc2)c(S(=O)(=O)NC#N)c1 [Example 548] | 65.2% | – | – |
| Cc1ccc(-c2ccc(CN(Cc3cccs3)C(=O)CC3CCCCC3)cc2)c(S(=O)(=O)NC#N)c1 [Example 549] | 67.3% | – | – |
| Cc1ccc(-c2ccc(CN(CCc3ccccc3)C(=O)CC3CCCCC3)cc2)c(S(=O)(=O)NC#N)c1 [Example 550] | 63.3% | – | – |
| Cc1ccc(-c2ccc(CN(Cc3ccccc3F)C(=O)CC3CCCCC3)cc2)c(S(=O)(=O)NC#N)c1 [Example 551] | 82.6% | – | – |
| Cc1ccc(-c2ccc(CN(Cc3cccc(Cl)c3Cl)C(=O)CC3CCCCC3)cc2)c(S(=O)(=O)NC#N)c1 [Example 552] | 61.5% | – | – |
| N#CNS(=O)(=O)c1ccc(Cl)cc1-c1ccc(CN(Cc2ccccc2)C(=O)Cc2cccs2)cc1 [Example 553] | 85.7% | – | – |
| N#CNS(=O)(=O)c1ccccc1-c1ccc(CN(Cc2ccccc2)C(=O)Cc2cccs2)c(Cl)c1 [Example 554, 4′-{[Benzyl-(2-thiophen-2-ylacetyl)amino]methyl}-3′-chlorobiphenyl-2-sulfonylcyanamide] | – | 15% | – |
| CS(=O)(=O)c1cc(-c2ccccc2S(=O)(=O)NC#N)ccc1CN(Cc1ccccc1)C(=O)Cc1cccs1 [Example 555, 4′-{[Benzyl-(2-thiophen-2-ylacetyl)amino]methyl}-3′-methylsulfonyl-biphenyl-2-sulfonylcyanamide] | – | 31% | – |
| N#CNS(=O)(=O)c1ccccc1-c1ccc(CN(Cc2ccccc2)S(=O)(=O)c2cccs2)c(Cl)c1 [Example 556, 4′-{[Benzyl-(2-thiophen-2-sulfonyl)amino]methyl}-3′-chlorobiphenyl-2-sulfonylcyanamide] | – | 0% | – |
| CS(=O)(=O)c1cc(-c2ccccc2S(=O)(=O)NC#N)ccc1CN(Cc1ccccc1)S(=O)(=O)c1cccs1 [Example 557, 4′-{[Benzyl(thiophene-2-sulfonyl)amino]methyl}-3′-methylsulfonylbiphenyl-2-sulfonylcyanamide] | – | 14% | – |
| COCCOc1cc(-c2ccccc2S(=O)(=O)NC#N)ccc1CN(Cc1ccccc1)S(=O)(=O)c1cccs1 [Example 558, 4′-{[Benzyl(thiophene-2-sulfonyl)amino]methyl}-3′-(2-methoxy)ethoxy-biphenyl-2-sulfonylcyanamide] | – | 30% | – |
| COCCOc1cc(-c2ccccc2S(=O)(=O)NC#N)ccc1CN(Cc1ccccc1)C(=O)Cc1cccs1 [Example 560, 4′-{[Benzyl-2-(thiophen-2-yl)acetylamino]methyl}-3′-(2-methoxy)ethoxy-biphenyl-2-sulfonylcyanamide] | – | 8.0% | – |
| Cc1ccccc1CC(=O)N(Cc1ccccc1)Cc1ccc(-c2ccccc2S(=O)(=O)NC#N)cc1 [Example 561, 4′-{[Benzyl-2-(2-methylphenyl)acetylamino]methyl}biphenyl-2-sulfonylcyanamide] | – | 16% | 108 °C (dec.) |
| N#CNS(=O)(=O)c1ccccc1-c1ccc(CN(Cc2ccccc2)C(=O)Cc2ccccc2C(F)(F)F)cc1 [Example 562, 4′-{[Benzyl-2-(2-trifluoromethylphenyl)acetylamino]methyl}biphenyl-2-sulfonylcyanamide] | – | 33% | 90 °C (dec.) |
| N#CNS(=O)(=O)c1ccccc1-c1ccc(CN(Cc2ccccc2)C(=O)Cc2ccccc2OC(F)(F)F)cc1 [Example 563, 4′-{[Benzyl-2-(2-trifluoromethoxyphenyl)acetylamino]methyl}biphenyl-2-sulfonylcyanamide] | – | 46% | 125 °C (dec.) |
| N#CNS(=O)(=O)c1ccccc1-c1ccc(CN(Cc2ccccc2)C(=O)Cc2ccccc2SC(F)(F)F)cc1 [Example 564] | – | 23% | 122 °C (dec.) |
| Cc1ccccc1C(=O)N(Cc1ccccc1)Cc1ccc(-c2ccccc2S(=O)(=O)NC#N)cc1 [Example 565, 4′-{[Benzyl-2-methylbenzoylamino]methyl}biphenyl-2-sulfonylcyanamide] | – | 42% | 173 °C (dec.) |
| N#CNS(=O)(=O)c1ccccc1-c1ccc(CN(Cc2ccccc2)C(=O)c2ccccc2C(F)(F)F)cc1 [Example 566, 4′-{[Benzyl-2-trifluoromethylbenzoylamino]methyl}biphenyl-2-sulfonylcyanamide] | – | 72% | 165 °C (dec.) |
| N#CNS(=O)(=O)c1ccccc1-c1ccc(CN(Cc2ccccc2)C(=O)c2ccccc2OC(F)(F)F)cc1 [Example 567, 4′-{[Benzyl-2-trifluoromethoxybenzoylamino]methyl}biphenyl-2-sulfonylcyanamide] | – | 69% | 160 °C (dec.) |
| Cc1ccc(C(=O)N(Cc2ccccc2)Cc2ccc(-c3ccccc3S(=O)(=O)NC#N)cc2)s1 [Example 568, 4′-{[Benzyl-(5-methylthiophen-2-yl)carbonylamino]methyl}biphenyl-2-sulfonylcyanamide] | – | 70% | 166 °C (dec.) |
